Laboratory results as given in BigSolDB 2.1.

C[C@H]1O[C@@H](n2cc(F)c(=O)[nH]c2=O)[C@H](O)[C@@H]1O
solubility (mole fraction)
Conditions | in 2-ethylhexanol | in methanol
278.15 K | 1.43e-05 | 0.00296
283.15 K | 2.23e-05 | 0.00334
288.15 K | 3.13e-05 | 0.00414
293.15 K | 4.66e-05 | 0.00466
298.15 K | 6.85e-05 | 0.00561
303.15 K | 9.63e-05 | 0.00653
308.15 K | 0.000139 | 0.00757
313.15 K | 0.000182 | 0.00849
318.15 K | 0.000252 | 0.0101
323.15 K | 0.000373 | 0.0113
328.15 K | 0.000496 | 0.0133
